From patent US10653717B2, “Antibiotic compositions” (priority 2016, dated 2020)

What was measured:
Assay in all cases: Drug sensitivity of clinical isolated strain
[1] = test system: KP-1: Klebsiella pneumonia subsp. pneumonia 13#; type: cell-based; details: KP-1 (Table 3)
[2] = test system: ECO-1: Escherichia coli 1139#; type: cell-based
[3] = test system: ECO-2: E. coli 2219#; type: cell-based, Escherichia coli; details: ECO-2 (Table 3)
[4] = test system: ECO-3: E. coli ZY-1; type: cell-based, Escherichia coli
[5] = test system: PA-2: P. aeruginose 0009#; type: cell-based, Pseudomonas aeruginosa; details: PA-2 (Table 3)
[6] = test system: AB-2: A. baumannii 0361#; type: cell-based, Acinetobacter baumannii; details: AB-2 (Table 3)
[7] = test system: AB-1: Acinetobacter baumannii H#; type: cell-based
[8] = test system: PA-1: Pseudomonas aeruginose 1298#; type: cell-based, Pseudomonas aeruginosa
[9] = test system: KP-2: K. pneumonia subsp. pneumonia 0322#; type: cell-based, Klebsiella pneumonia
[10] = test system: ECL-2: E. cloacae 2301#; type: cell-based, Enterobacter cloacae
[11] = test system: ECL-1: Enterobacter cloacae 0431#; type: cell-based; details: ECL-1 (Table 3)
Further: key: R: resistant; S: sensitive.

Row | Compound | Drug sensitivity [1] | Drug sensitivity ([2]; ECO-1 (Table 3)) | Drug sensitivity ([2]; ECO-1 (table of Example 3)) | Drug sensitivity [3] | Drug sensitivity ([4]; E. coli ZY-1 (Table 7)) | Drug sensitivity ([4]; ECO-3 (Table 3)) | Drug sensitivity [5] | Drug sensitivity [6] | Drug sensitivity ([7]; AB-1 (Table 3)) | Drug sensitivity ([7]; AB-1 (table of Example 3)) | Drug sensitivity ([8]; PA-1 (Table 3)) | Drug sensitivity ([8]; PA-1 (table of Example 3)) | Drug sensitivity ([9]; KP-2 (Table 3)) | Drug sensitivity ([9]; KP-2 (table of Example 3)) | Drug sensitivity ([10]; ECL-2 (Table 3)) | Drug sensitivity ([10]; ECL-2 (table of Example 3)) | Drug sensitivity [11]
1 | CC1(C)S[C@@H]2[C@H](NC(=O)[C@H](N)c3ccccc3)C(=O)N2[C@H]1C(=O)O [Ampicillin] | R | S | S | R | S | S | R | R | R | R | R/S | R/S | R | R | – | – | –
2 | Polymyxin | – | – | – | – | – | – | S | S | S | S | S | S | – | – | S | S | R
3 | CO/N=C(\C(=O)N[C@@H]1C(=O)N2C(C(=O)[O-])=C(C[N+]3(C)CCCC3)CS[C@H]12)c1csc(N)n1 [Cefepime] | R | R | R | R | S | S | R | R | R | R | R | R | R | R | R | R | R
4 | NCC[C@H](O)C(=O)N[C@@H]1C[C@H](N)[C@@H](O[C@H]2O[C@H](CN)[C@@H](O)[C@H](O)[C@H]2O)[C@H](O)[C@H]1O[C@H]1O[C@H](CO)[C@@H](O)[C@H](N)[C@H]1O [Amikacin] | R | S | S | S | S | S | R | R | R | R | S | S | S | S | S | S | S
5 | C[C@@H](O)[C@H]1C(=O)N2C(C(=O)O)=C(SCCN=CN)C[C@H]12 [Imipenem] | R | S | S | S | S | S | – | R | R | R | S | S | S | S | R | R | S
6 | Nc1ccc(S(N)(=O)=O)cc1 [Sulfanilamide] | – | R | R | R | R | R | R | S | – | – | R | R | – | – | R | R | R
7 | CC1(C)[C@H](C(=O)O)N2C(=O)C[C@H]2S1(=O)=O [Sulbactam] | R | R/S | R/S | R | S | S | – | – | R | R | – | – | R | R | – | – | –
8 | C[C@H]1[C@H](NC(=O)/C(=N\OC(C)(C)C(=O)O)c2csc(N)n2)C(=O)N1S(=O)(=O)O [Aztreonam] | – | R | R | R | S | S | R | R | R | R | R | R | – | – | R | R | R
9 | CC(C)(O/N=C(\C(=O)N[C@@H]1C(=O)N2C(C(=O)[O-])=C(C[n+]3ccccc3)CS[C@H]12)c1csc(N)n1)C(=O)O [Ceftazidime] | R | R/S | R/S | R | S | S | R | R | R | R | R | R | R | R | R | R | R
10 | C[C@@H](O)[C@H]1C(=O)N2C(C(=O)O)=C(S[C@@H]3CN[C@H](C(=O)N(C)C)C3)[C@H](C)[C@H]12 [Meropenem] | R | S | S | S | S | S | R/S | R | R | R | R | R | S | S | R | R | S
11 | C[C@]1(Cn2ccnn2)[C@H](C(=O)O)N2C(=O)C[C@H]2S1(=O)=O [Tazobactam] | R | S | S | R/S | S | S | R | R | R | R | R/S | R/S | R | R | R | R | S
12 | CO/N=C(\C(=O)N[C@@H]1C(=O)N2C(C(=O)O)=C(COC(C)=O)CS[C@H]12)c1csc(N)n1 [Cefotaxime] | R | R | R | R | S | S | R | R | R | R | R | R | R | R | R | R | R
13 | CCN1CCN(C(=O)N[C@@H](C(=O)N[C@@H]2C(=O)N3[C@@H]2SC(C)(C)[C@@H]3C(=O)O)c2ccccc2)C(=O)C1=O [Piperacillin] | R | R | R | R | S | S | R | R | R | R | R/S | R/S | R | R | R | R | R
14 | O=C(N[C@H](CO)[C@H](O)c1ccc([N+](=O)[O-])cc1)C(Cl)Cl [Chloramphenicol] | R | S | S | S | S | S | R | R | R | R | – | – | R | R | R | R | R
15 | Cc1nnc(SCC2=C(C(=O)O)N3C(=O)[C@@H](NC(=O)Cn4cnnn4)[C@H]3SC2)s1 [Cefazolin] | R | R | R | R | S | S | R | R | R | R | R | R | R | R | – | – | –
